Results: the supplement of paper PMC10307832

Columns and labels:
Experiment in all cases: relative viability (nuclei count vs DMSO), 5 days (fraction); higher = more cells survive
Sulindac + Phenformin = compound: CC1=C(CC(=O)O)c2cc(F)ccc2/C1=C\c1ccc([S+](C)[O-])cc1 [Sulindac] + N=C(N)NC(=N)NCCc1ccccc1 [Phenformin] (partner 250 µM)
In short: (§1)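 Values are medians from duplicate plates. Each reflects relative viability, defined as the nuclei count of treated wells over that of vehicle wells. Lung cancer cell lines in 1536-well plates were pin-tool dosed one day after seeding with one drug alone or with a fixed anchor-drug dose plus five library-drug doses (not always all listed) in √10 steps, then fixed, stained and imaged at 4× after 5 days.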

[1] = compound: CN[C@@H]1C[C@H]2O[C@@](C)([C@@H]1OC)n1c3ccccc3c3c4c(c5c6ccccc6n2c5c31)C(=O)NC4 [Staurosporine] + C[C@@H](Oc1cc(-c2cnn(C3CCNCC3)c2)cnc1N)c1c(Cl)ccc(F)c1Cl [Crizotinib] (partner 1 µM)
In short: as §1

[2] = compound: O=c1[nH]cc(F)c(=O)[nH]1 [5-Fluorouracil] + CS(=O)(=O)CCNCc1ccc(-c2ccc3ncnc(Nc4ccc(OCc5cccc(F)c5)c(Cl)c4)c3c2)o1 [Lapatinib] (partner 2 µM)
In short: as §1

[3] = compound: CN[C@@H]1C[C@H]2O[C@@](C)([C@@H]1OC)n1c3ccccc3c3c4c(c5c6ccccc6n2c5c31)C(=O)NC4 [Staurosporine] + CCNC(=O)c1noc(-c2cc(C(C)C)c(O)cc2O)c1-c1ccc(CN2CCOCC2)cc1 [Luminespib] (partner 0.01 µM)
In short: as §1

| Cell Line | relative viability (Sulindac + Phenformin; first compound 0.08 µM) | relative viability (Sulindac + Phenformin; first compound 0.253 µM) | relative viability (Sulindac + Phenformin; first compound 2.53 µM) | relative viability (Sulindac + Phenformin; first compound 8 µM) | relative viability ([1]; first compound 0.01581 µM) | relative viability ([1]; first compound 0.05 µM) | relative viability ([1]; first compound 0.1581 µM) | relative viability ([1]; first compound 0.5 µM) | relative viability ([2]; first compound 0.02 µM) | relative viability ([2]; first compound 0.2 µM) | relative viability ([2]; first compound 0.6325 µM) | relative viability ([2]; first compound 2 µM) | relative viability ([3]; first compound 0.005 µM) | relative viability ([3]; first compound 0.01581 µM) | relative viability ([3]; first compound 0.05 µM) | relative viability ([3]; first compound 0.1581 µM) | relative viability ([3]; first compound 0.5 µM) | relative viability ([1]; first compound 0.005 µM) | relative viability (Sulindac + Phenformin; first compound 0.8 µM) |
| --- | --- | --- | --- | --- | --- | --- | --- | --- | --- | --- | --- | --- | --- | --- | --- | --- | --- | --- | --- |
| NCI-H1792 | 0.243 | 0.441 | 0.353 | 0.255 | 0.822 | 0.418 | 0.154 | 0.16 | 0.893 | 0.853 | 0.235 | 0.161 | 0.459 | 0.287 | 0.18 | 0.188 | 0.199 |  |  |
| NCI-H1915 | 0.445 | 0.389 | 0.378 | 0.382 |  | 0.362 | 0.294 | 0.268 | 0.908 | 0.999 | 0.97 | 0.724 | 0.824 | 0.247 | 0.207 | 0.105 | 0.0895 | 0.903 |  |
| NCI-H1944 | 0.209 | 0.226 | 0.203 | 0.271 |  | 0.633 | 0.666 | 0.336 | 0.843 | 0.908 | 0.474 | 0.268 | 0.928 | 0.507 | 0.41 | 0.44 | 0.187 | 1.13 | 0.18 |
| NCI-H1975 | 0.27 | 0.404 | 0.403 | 0.457 | 0.276 | 0.212 | 0.121 | 0.115 | 0.879 | 1.09 | 0.495 | 0.333 | 0.159 | 0.155 | 0.131 | 0.169 | 0.146 | 0.369 | 0.365 |
| NCI-H1993 | 0.431 | 0.479 | 0.461 | 0.531 | 0.78 | 0.527 | 0.487 | 0.298 | 0.706 | 0.765 | 0.65 | 0.591 | 0.75 | 0.532 | 0.51 | 0.494 | 0.303 | 0.861 | 0.51 |
| NCI-H2009 | 0.549 | 0.521 | 0.53 | 0.538 | 0.22 | 0.174 | 0.123 | 0.0888 | 0.941 | 0.919 | 0.764 | 0.812 | 0.357 | 0.271 | 0.17 | 0.114 | 0.149 | 0.255 | 0.45 |
| NCI-H2023 | 0.423 | 0.498 | 0.419 | 0.571 | 0.288 | 0.132 | 0.0749 | 0.0599 | 0.719 | 0.234 | 0.0995 | 0.113 | 0.343 | 0.228 | 0.109 | 0.088 | 0.045 | 0.262 | 0.325 |
| NCI-H2085 | 0.767 | 0.912 | 0.739 | 0.751 | 0.516 | 0.465 | 0.264 | 0.237 | 0.654 | 0.957 | 0.923 | 0.704 | 0.39 | 0.315 | 0.2 | 0.227 | 0.171 | 0.65 | 0.593 |
| NCI-H2087 | 0.58 | 0.529 | 0.431 | 0.51 | 0.392 | 0.344 | 0.137 | 0.12 | 1.03 | 1.22 | 0.748 | 0.548 | 0.151 | 0.139 | 0.112 | 0.112 | 0.0949 | 0.767 |  |
| NCI-H2126 | 0.513 | 0.541 | 0.46 | 0.593 | 0.8 | 0.635 | 0.486 | 0.407 | 0.801 | 0.444 | 0.321 | 0.281 | 0.547 | 0.318 | 0.252 | 0.207 | 0.207 | 0.994 | 0.539 |
| NCI-H2170 | 0.471 | 0.407 | 0.384 | 0.432 | 0.754 | 0.92 | 0.195 | 0.311 | 0.282 | 0.317 | 0.273 | 0.27 | 0.587 |  | 0.463 | 0.238 | 0.148 | 1.43 | 0.411 |
| NCI-H2228 | 0.388 | 0.352 | 0.271 | 0.341 | 0.234 | 0.177 | 0.169 | 0.132 | 1.13 | 1.06 | 0.687 | 0.505 | 0.0928 | 0.122 | 0.0907 | 0.0947 | 0.0857 | 0.292 | 0.254 |
| NCI-H2347 | 0.379 | 0.33 | 0.375 | 0.381 | 0.353 | 0.364 | 0.415 | 0.449 | 1.07 | 0.796 | 0.48 | 0.436 | 0.4 | 0.262 | 0.216 | 0.228 | 0.263 | 0.559 |  |
| NCI-H2405 | 0.395 | 0.455 | 0.389 | 0.465 | 0.319 | 0.146 | 0.125 | 0.106 | 1.06 | 1.22 | 1.06 | 0.63 | 0.282 | 0.148 | 0.0814 | 0.112 | 0.0639 | 0.681 | 0.505 |
| NCI-H3122 | 0.384 | 0.37 | 0.325 | 0.413 | 0.465 | 0.59 | 0.32 | 0.318 | 0.994 | 0.903 | 0.338 | 0.246 | 0.0697 |  | 0.0639 | 0.0502 | 0.0521 | 0.443 | 0.626 |
| PC-3 [JPC-3] | 0.475 | 0.494 | 0.458 | 0.548 |  | 0.707 | 0.498 | 0.425 | 0.479 | 0.48 | 0.485 | 0.476 | 0.628 | 0.474 | 0.319 | 0.323 | 0.272 |  | 0.657 |
| PC-14 | 0.571 | 0.403 | 0.537 | 0.853 | 0.714 | 0.141 | 0.0852 | 0.0777 | 0.305 | 0.433 | 0.327 | 0.292 | 0.11 | 0.101 | 0.103 | 0.132 | 0.118 | 0.683 | 0.403 |
